Measured values: US4520031A, “Method for reducing toxic effects of methyl-glyoxal bis-guanylhydrazone” (priority 1982, dated 1985)
Where two headings read alike, the source gives them in different places.

Columns and labels:
Lung (non-small cell) = assay: Response to weekly MGBG, lung; format: in vivo, human; conditions: 6 evaluable patients
Description: (§1) During the course of the clinical experiments, MGBG was administered to patients in approximately weekly doses ranging from 250 to 1000 mg per square meter.
(§2) Pre-treatment minimum evaluation included chest roentgenogram, liver and renal function tests, complete blood count with differential and platelet count and serum glucose. Pre-treatment performance status was recorded for each patient in accordance with SWOG criteria.
(§3) This intravenous infusion is administered to the patient over a period of time not less than 30 minutes. Accordingly, an approximation of the patient's surface area in square meters is calculated using a height and weight to surface area nomogram (listed in Documenta Geigy, Scientific Tables (1970) p. 537) and this factor is applied in determining the appropriate amount of MGBG salt to be added to the infusion solution. […] In the absence of toxicity, subsequent doses of MGBG are increased by 100 mg/m^2 over the previous week's dose. If patients experience moderate or severe reversible toxicity, the dose is reduced by 100 mg/m^2 relative to the previous week's dose. No change in dosage strength is made for mild toxicity.

Ewings = assay: Response to weekly MGBG, Ewings; format: in vivo, human; conditions: 1 evaluable patient
Description: as §1, §2, §3

Melanoma = assay: Response to weekly MGBG, melanoma; format: in vivo, human; conditions: 1 evaluable patient
Description: as §1, §2, §3

Esophagus = assay: Response to weekly MGBG, esophagus; format: in vivo, human
Description: as §1, §2, §3

Hepatoma = assay: Response to weekly MGBG, hepatoma; format: in vivo, human; conditions: 1 evaluable patient
Description: as §1, §2, §3

[1] = cited from earlier work
Colon = assay: Response to weekly MGBG, colon; format: in vivo, human; conditions: 14 evaluable patients
Description: as §1, §2, §3

[2] = tested on: Bladder (transitional cell); assay: Response to weekly MGBG, bladder; format: in vivo, human
Description: as §1, §2, §3

protein synthesis = conditions: in vitro; cited from earlier work
Lymphoma = assay: Response to weekly MGBG, lymphoma; format: in vivo, human; conditions: 2 evaluable patients
Description: as §1, §2, §3

[3] = tested on: Adenocarcinoma (unknown primary); assay: Response to weekly MGBG, adenocarcinoma; format: in vivo, human
Description: as §1, §2, §3

Breast = assay: Response to weekly MGBG, breast; format: in vivo, human; conditions: 12 evaluable patients
Description: as §1, §2, §3

DNA synthesis = conditions: reversed by exogenous spermidine; cited from earlier work
Renal = assay: Response to weekly MGBG, renal; format: in vivo, human
Description: as §1, §2, §3

Prostate = assay: Response to weekly MGBG, prostate; format: in vivo, human; conditions: 6 evaluable patients
Description: as §1, §2, §3

[4] = over three weeks, 30240 min; cited from earlier work
[5] = tested on: advanced malignant disease; assay: Response to weekly MGBG, all diagnoses (Table I); format: in vivo, human
Description: as §1, §2, §3

[6] = cited from earlier work; for Penile inflammation: % of male population
spermidine biosynthesis = conditions: in vitro; concentrations as low as; cited from earlier work
[7] = Group I, less than 100 mg/m^2/day
[8] = Group II, 100 to 125 mg/m^2/day
[9] = Group III, 126 to 160 mg/m^2/day

SMILES: CC(C=NNC(=N)N)=NNC(=N)N [MGBG, 1,1'-[(methylethanediylidene)dinitrilo] diguanidine]
- CR + PR (Lung (non-small cell)): 2
- No Response (Lung (non-small cell)): 4
- PR (Partial response) (Lung (non-small cell)): 2
- No Response (Ewings): 1
- IMP (Improvement noted) (Melanoma): 1
- CR + PR (Esophagus; 2 evaluable patients): 1
- No Response (Esophagus; 2 evaluable patients): 1
- PR (Partial response) (Esophagus; 2 evaluable patients): 1
- Duration Months (Esophagus; duration of CR + PR): 3 Months
- No Response (Hepatoma): 1
- Days to first Toxicity ([1]; patient 1, 230 mg/m^2/day): 16 days
- Response ([1]; patient 1, 230 mg/m^2/day): None
- Days to first Toxicity ([1]; patient 2, 340 mg/m^2/day): 7 days
- Response ([1]; patient 2, 340 mg/m^2/day): None
- Days to first Toxicity ([1]; patient 3, 256 mg/m^2/day): 9 days
- Response ([1]; patient 3, 256 mg/m^2/day): Partial
- Days to first Toxicity ([1]; patient 4, 264 mg/m^2/day): 7 days
- Response ([1]; patient 4, 264 mg/m^2/day): Complete
- Days to first Toxicity ([1]; patient 5, 252 mg/m^2/day): 10 days
- Response ([1]; patient 5, 252 mg/m^2/day): Complete
- Days to first Toxicity ([1]; patient 6, 156 mg/m^2/day): 10 days
- Response ([1]; patient 6, 156 mg/m^2/day): Complete
- Days to first Toxicity ([1]; patient 7, 194 mg/m^2/day): 6 days
- Response ([1]; patient 7, 194 mg/m^2/day): Complete
- Days to first Toxicity ([1]; patient 8, 194 mg/m^2/day): 7 days
- Response ([1]; patient 8, 194 mg/m^2/day): Complete
- Days to first Toxicity ([1]; patient 9, 150 mg/m^2/day): 23 days
- Response ([1]; patient 9, 150 mg/m^2/day): Partial
- Toxic Manifestation ([1]; patient 9, 150 mg/m^2/day): None
- Days to first Toxicity ([1]; patient 10, 150 mg/m^2/day): 24 days
- Response ([1]; patient 10, 150 mg/m^2/day): Complete
- Toxic Manifestation ([1]; patient 10, 150 mg/m^2/day): None
- Days to first Toxicity ([1]; patient 11, 150 mg/m^2/day): 15 days
- Response ([1]; patient 11, 150 mg/m^2/day): Complete
- Toxic Manifestation ([1]; patient 11, 150 mg/m^2/day): None
- Days to first Toxicity ([1]; patient 12, 150 mg/m^2/day): 13 days
- Response ([1]; patient 12, 150 mg/m^2/day): Complete
- Days to first Toxicity ([1]; patient 13, 150 mg/m^2/day): 13 days
- Response ([1]; patient 13, 150 mg/m^2/day): Complete
- Toxic Manifestation ([1]; patient 13, 150 mg/m^2/day): None
- CR + PR (Colon): 3
- No Response (Colon): 11
- PR (Partial response) (Colon): 3
- CR (Complete response) ([2]; 3 evaluable patients): 1
- CR + PR ([2]; 3 evaluable patients): 1
- No Response ([2]; 3 evaluable patients): 2
- Duration Months ([2]; duration of CR + PR): 1 Months
- concentration with direct toxic effects, including inhibition of protein synthesis (protein synthesis): ≥ 30000 ng/mL
- No Response (Lymphoma): 2
- CR (Complete response) ([3]; 3 evaluable patients): 1
- CR + PR ([3]; 3 evaluable patients): 1
- IMP (Improvement noted) ([3]; 3 evaluable patients): 1
- PR (Partial response) ([3]; 3 evaluable patients): 1
- Duration Months ([3]; duration of CR + PR): 2 Months
- IMP (Improvement noted) (Breast): 2
- No Response (Breast): 10
- MGBG-mediated depression of DNA synthesis, associated changes (DNA synthesis): spermidine depletion and putrescine accumulation
- CR + PR (Renal; 5 evaluable patients): 1
- IMP (Improvement noted) (Renal; 5 evaluable patients): 2
- No Response (Renal; 5 evaluable patients): 2
- PR (Partial response) (Renal; 5 evaluable patients): 1
- Duration Months (Renal; duration of CR + PR): 5 Months
- IMP (Improvement noted) (Prostate): 1
- No Response (Prostate): 5
- administered intravenous dose excreted in the feces [4]: less than 20%
- administered intravenous dose excreted in the urine [4]: 50%
- biologic effect at 250 mg/m^2 ([5]; 12 patients, 250 mg/m^2): no apparent biologic effect
- response at 250 mg/m^2 weekly ([5]; first twelve patients, 250 mg/m^2 weekly): no response
- CR (Complete response), total ([5]; weekly, 65 evaluable patients): 2
- CR + PR, total ([5]; weekly, 65 evaluable patients): 11
- IMP (Improvement noted), total ([5]; weekly, 65 evaluable patients): 9
- No Response, total ([5]; weekly, 65 evaluable patients): 45
- PR (Partial response), total ([5]; weekly, 65 evaluable patients): 9
- antineoplastic activity in solid tumors ([5]; weekly, colon, esophageal, renal cell, prostate, and breast carcinoma): effective
- Acroerythema (number of patients) [6, 7]: 0 patients
- Diarrhea [6, 7]: 40%
- Diarrhea (number of patients) [6, 7]: 4 patients
- Died during treatment [6, 7]: 42%
- Died during treatment (number of patients) [6, 7]: 5 patients
- Erythema Nodosum [6, 7]: 10%
- Erythema Nodosum (number of patients) [6, 7]: 1 patients
- Mucosal involvement [6, 7]: 80%
- Mucosal involvement (number of patients) [6, 7]: 8 patients
- Penile inflammation (number of patients) [6, 7]: 0 patients
- Vasculitis [6, 7]: 40%
- Vasculitis (number of patients) [6, 7]: 4 patients
- Weight Loss (Median %) [6, 7]: 0%
- Penile inflammation [6, 8]: 25%
- Acroerythema [6, 8]: 17%
- Acroerythema (number of patients) [6, 8]: 4 patients
- Diarrhea [6, 8]: 41%
- Diarrhea (number of patients) [6, 8]: 6 patients
- Died during treatment [6, 8]: 62%
- Died during treatment (number of patients) [6, 8]: 10 patients
- Erythema Nodosum [6, 8]: 9%
- Erythema Nodosum (number of patients) [6, 8]: 2 patients
- Mucosal involvement [6, 8]: 98%
- Mucosal involvement (number of patients) [6, 8]: 15 patients
- Penile inflammation (number of patients) [6, 8]: 3 patients
- Vasculitis [6, 8]: 25%
- Vasculitis (number of patients) [6, 8]: 5 patients
- Weight Loss (Median %) [6, 8]: 6%
- Penile inflammation [6, 9]: 23%
- Acroerythema [6, 9]: 17%
- Acroerythema (number of patients) [6, 9]: 6 patients
- Diarrhea [6, 9]: 42%
- Diarrhea (number of patients) [6, 9]: 15 patients
- Died during treatment [6, 9]: 30%
- Died during treatment (number of patients) [6, 9]: 11 patients
- Erythema Nodosum [6, 9]: 12%
- Erythema Nodosum (number of patients) [6, 9]: 3 patients
- Mucosal involvement [6, 9]: 91%
- Mucosal involvement (number of patients) [6, 9]: 31 patients
- Penile inflammation (number of patients) [6, 9]: 4 patients
- Vasculitis [6, 9]: 25%
- Vasculitis (number of patients) [6, 9]: 8 patients
- Weight Loss (Median %) [6, 9]: 10%
- Acroerythema ([6]; Group IV, over 160 mg/m^2/day): 20%
- Acroerythema (number of patients) ([6]; Group IV, over 160 mg/m^2/day): 2 patients
- Diarrhea ([6]; Group IV, over 160 mg/m^2/day): 20%
- Diarrhea (number of patients) ([6]; Group IV, over 160 mg/m^2/day): 2 patients
- Died during treatment ([6]; Group IV, over 160 mg/m^2/day): 83%
- Died during treatment (number of patients) ([6]; Group IV, over 160 mg/m^2/day): 10 patients
- Erythema Nodosum (number of patients) ([6]; Group IV, over 160 mg/m^2/day): 0 patients
- Mucosal involvement ([6]; Group IV, over 160 mg/m^2/day): 100%
- Mucosal involvement (number of patients) ([6]; Group IV, over 160 mg/m^2/day): 10 patients
- Penile inflammation (number of patients) ([6]; Group IV, over 160 mg/m^2/day): 0 patients
- Vasculitis ([6]; Group IV, over 160 mg/m^2/day): 20%
- Vasculitis (number of patients) ([6]; Group IV, over 160 mg/m^2/day): 2 patients
- Weight Loss (Median %) ([6]; Group IV, over 160 mg/m^2/day): 5%
- incidence of toxicity under other schedules ([6]; continuous 24-hour infusion, very high initial dose then lower maintenance doses, versus daily dosing): neither of these regimens altered the incidence of associated toxicity
- concentration at which MGBG is a potent inhibitor of spermidine biosynthesis (spermidine biosynthesis): ≥ 0.5 µg/mL
